In ChEMBL document CHEMBL6182945, “MMAE-Based Peptide-Drug Conjugates Targeting GPC3 for Precision Chemoradiotherapy in Hepatocellular Carcinoma” (J Med Chem, 2025):
Activity calls are given as the source filed them. No cut-off for these calls is given here. Starred links: 1 amine or outer side, 2 acyl side, 3 side chain; linkers in the order of their positions; H or OH if unused. Positions of bridges follow the written chain, without caps; N, C: chain ends. Non-standard residues stand in square brackets, D forms with d. Residues, ends and D or L forms follow the SMILES beside them. Chains are numbered I, II in the order given. *: point of attachment. X2 = CC[C@H](C)[C@@H]([C@@H](CC(=O)N1CCC[C@H]1[C@H](OC)[C@@H](C)C(=O)N[C@H](C)[C@H](O)c1ccccc1)OC)N(C)[C@H](C(=O)NC(=O)[C@H](C(C)C)N(C)C(=O)OCc1ccc(NC(=O)[C@H](CCCNC(N)=O)NC(=O)[C@@H](NC(=O)CCCCCN2C(=O)CC(*)C2=O)C(C)C)cc1)C(C)C; Hexanoyl(6-succinimido-3yl) = O=C1CC([*:1])C(=O)N1CCCCCC(=O)[*:2]; Dolaproine = CO[C@@H]([C@@H]1CCCN1)[C@@H](C)C(=O)O; Dil = CC[C@H](C)[C@H](NC)[C@@H](CC(=O)O)OC; PABC = O=C(OCc1ccc(N[*:1])cc1)[*:2]; X1 = C[C@@H](N*)[C@@H](O)c1ccccc1; Cit = NC(=O)NCCC[C@H](N)C(=O)O; NMeV = CN[C@H](C(=O)O)C(C)C

Key:
HeLa = assay: Antiproliferative activity against GPC3-negative human HeLa cells assessed as cytotoxicity measured after 72 hrs by MTT assay; format: functional, cell-based
LX-2 = assay: Antiproliferative activity against GPC3-negative human LX-2 cells assessed as cytotoxicity measured after 72 hrs by MTT assay; format: functional, cell-based; conditions: LX-2, 72 h
Huh-7 = assay: Antiproliferative activity against GPC3-positive human Huh-7 cells assessed as cytotoxicity measured after 72 hrs by MTT assay; format: functional, cell-based; conditions: Huh-7, 72 h
Hep 3B2 = assay: Antiproliferative activity against GPC3-positive human Hep3B cells assessed as cytotoxicity measured after 72 hrs by MTT assay; format: functional, cell-based
[1] = Drug uptake in human Huh-7 cells assessed as red fluorescence in inside the cells measured after 30 mins by live cell confocal imaging analysis; format: ADME, cell-based; conditions: huh-7, 0.5 h
[2] = Drug uptake in human Huh-7 cells assessed as green fluorescence in lysosomes measured after 30 mins co-staining with lysotracker by live cell confocal imaging analysis; format: ADME, cell-based; conditions: huh-7, 0.5 h
[3] = target: Glypican-3 (Homo sapiens) (UniProt P51654); assay: Binding affinity to GPC3 in human Hep3B cells assessed as increase in fluorescence (red color) by immunofluorescence staining based assay; format: cell-based
[4] = target: Glypican-3 (Homo sapiens) (UniProt P51654); assay: Binding affinity to GPC3 in human HeLa cells assessed as increase in fluorescence (red color) measured after 4 hrs incubation by immunofluorescence staining based assay; format: cell-based
[5] = target: Glypican-3 (Homo sapiens) (UniProt P51654); assay: Binding affinity to GPC3 in human LX-2 cells assessed as increase in fluorescence (red color) measured after 4 hrs incubation by immunofluorescence staining based assay; format: cell-based
[6] = target: Glypican-3 (Homo sapiens) (UniProt P51654); assay: Binding affinity to GPC3 in human Huh-7 cells assessed as increase in fluorescence (red color) by immunofluorescence staining based assay; format: cell-based

Glypican-3 (Homo sapiens), sequence (P51654 25-358 limits assumed): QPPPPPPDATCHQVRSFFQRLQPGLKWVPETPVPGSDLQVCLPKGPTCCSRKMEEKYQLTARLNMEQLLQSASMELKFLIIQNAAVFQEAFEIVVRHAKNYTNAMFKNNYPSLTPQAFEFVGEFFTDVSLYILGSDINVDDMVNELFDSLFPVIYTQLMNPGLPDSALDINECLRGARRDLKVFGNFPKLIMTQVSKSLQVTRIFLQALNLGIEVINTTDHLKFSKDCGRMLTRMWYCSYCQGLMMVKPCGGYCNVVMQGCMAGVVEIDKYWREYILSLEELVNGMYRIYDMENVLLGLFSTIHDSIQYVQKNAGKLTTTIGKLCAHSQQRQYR
Glypican-3 (Homo sapiens), sequence (P51654 359-554 limits assumed): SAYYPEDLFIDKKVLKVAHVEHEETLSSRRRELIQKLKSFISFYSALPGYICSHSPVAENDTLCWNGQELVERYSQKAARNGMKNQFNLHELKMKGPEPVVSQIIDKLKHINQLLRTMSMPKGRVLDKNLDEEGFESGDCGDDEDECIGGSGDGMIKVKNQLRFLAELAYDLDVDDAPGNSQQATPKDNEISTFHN

Row | SMILES | IC50 (HeLa) [nM] | IC50 (LX-2) [nM] | IC50 (Huh-7) [nM] | IC50 (Hep 3B2) [nM] | Drug uptake [1] | Drug uptake [2] | Activity [3] | Activity [4] | Activity [5] | Activity [6]
1 | CC[C@H](C)[C@@H]([C@@H](CC(=O)N1CCC[C@H]1[C@H](OC)[C@@H](C)C(=O)N[C@H](C)[C@H](O)c1ccccc1)OC)N(C)[C@H](C(=O)NC(=O)[C@H](C(C)C)N(C)C(=O)OCc1ccc(NC(=O)[C@H](CCCNC(N)=O)NC(=O)[C@@H](NC(=O)CCCCCN2C(=O)CC(SC[C@H](N)C(=O)N[C@H](C(=O)N[C@@H](Cc3cnc[nH]3)C(=O)N[C@H](C(=O)N[C@@H](CO)C(=O)N3CCC[C@H]3C(=O)N[C@@H](CC(N)=O)C(=O)N[C@@H](CCC(N)=O)C(=O)NCC(=O)NCC(=O)N[C@@H](CC(C)C)C(=O)N3CCC[C@H]3C(=O)N[C@@H](CO)C(=O)O)C(C)C)[C@@H](C)O)C2=O)C(C)C)cc1)C(C)C (some centres not stated) (H-C(X2)THVSPNQGGLPS-OH) | > 100 | 48.9 | 40 | > 100 |  |  |  |  |  | 
2 | CC[C@H](C)[C@@H]([C@@H](CC(=O)N1CCC[C@H]1[C@H](OC)[C@@H](C)C(=O)N[C@H](C)[C@@H](O)c1ccccc1)OC)N(C)C(=O)[C@@H](NC(=O)[C@H](C(C)C)N(C)C(=O)OCc1ccc(NC(=O)[C@H](CCCNC(N)=O)NC(=O)[C@@H](NC(=O)CCCCCN2C(=O)CC(SC[C@H](N)C(=O)N[C@@H](CCCNC(=N)N)C(=O)N[C@@H](CC(C)C)C(=O)N[C@@H](CC(N)=O)C(=O)N[C@H](C(=O)NCC(=O)NCC(=O)N[C@H](C(=O)N[C@@H](Cc3ccc(O)cc3)C(=O)N[C@@H](Cc3ccccc3)C(=O)N[C@@H](CC(C)C)C(=O)N[C@H](C(=O)N[C@H](C(=O)N[C@@H](CCCNC(=N)N)C(=O)N[C@@H](CCC(N)=O)C(N)=O)[C@@H](C)O)[C@@H](C)O)[C@@H](C)O)C(C)C)C2=O)C(C)C)cc1)C(C)C (some centres not stated) (I: H-CRLNVGGTYFLTTRQ-NH2 / II: V[Cit][PABC][NMeV]V[Dil][Dolaproine]-X1; linker I:1-II:N via Hexanoyl(6-succinimido-3yl)) | 70.4 | 30.8 | 67.9 | 81.2 |  |  |  |  |  | 
3 | CC[C@H](C)[C@@H]([C@@H](CC(=O)N1CCC[C@H]1[C@H](OC)[C@@H](C)C(=O)N[C@H](C)[C@@H](O)c1ccccc1)OC)N(C)C(=O)[C@@H](NC(=O)[C@H](C(C)C)N(C)C(=O)OCc1ccc(NC(=O)[C@H](CCCNC(N)=O)NC(=O)[C@@H](NC(=O)CCCCCN2C(=O)CC(SC[C@H](N)C(=O)N[C@@H](CC(=O)O)C(=O)N[C@@H](Cc3cnc[nH]3)C(=O)N[C@@H](CC(C)C)C(=O)N[C@@H](C)C(=O)N[C@@H](CO)C(=O)N[C@@H](CC(C)C)C(=O)N[C@@H](Cc3c[nH]c4ccccc34)C(=O)N[C@@H](Cc3c[nH]c4ccccc34)C(=O)NCC(=O)N[C@H](C(=O)N[C@@H](CCC(=O)O)C(=O)N[C@@H](CC(C)C)C(N)=O)[C@@H](C)O)C2=O)C(C)C)cc1)C(C)C (some centres not stated) (I: H-CDHLASLWWGTEL-NH2 / II: V[Cit][PABC][NMeV]V[Dil][Dolaproine]-X1; linker I:1-II:N via Hexanoyl(6-succinimido-3yl)) | > 100 | > 100 | > 100 | > 100 |  |  |  |  |  | 
4 | CC[C@H](C)[C@@H]([C@@H](CC(=O)N1CCC[C@H]1[C@H](OC)[C@@H](C)C(=O)N[C@H](C)[C@@H](O)c1ccccc1)OC)N(C)C(=O)[C@@H](NC(=O)[C@H](C(C)C)N(C)C(=O)OCc1ccc(NC(=O)[C@H](CCCNC(N)=O)NC(=O)[C@@H](NC(=O)CCCCCN2C(=O)CC(SC[C@H](N)C(=O)N[C@@H](Cc3ccc(O)cc3)C(=O)N[C@@H](Cc3ccccc3)C(=O)N[C@@H](CC(C)C)C(=O)N[C@H](C(=O)N[C@H](C(=O)N[C@@H](CCCNC(=N)N)C(=O)N[C@@H](CCC(N)=O)C(N)=O)[C@@H](C)O)[C@@H](C)O)C2=O)C(C)C)cc1)C(C)C (some centres not stated) (I: H-CYFLTTRQ-NH2 / II: V[Cit][PABC][NMeV]V[Dil][Dolaproine]-X1; linker I:1-II:N via Hexanoyl(6-succinimido-3yl)) | > 100 | > 100 | 30.9 | > 100 |  |  |  |  |  | 
5 | CC[C@H](C)[C@@H]([C@@H](CC(=O)N1CCC[C@H]1[C@H](OC)[C@@H](C)C(=O)N[C@H](C)[C@@H](O)c1ccccc1)OC)N(C)C(=O)[C@@H](NC(=O)[C@H](C(C)C)N(C)C(=O)OCc1ccc(NC(=O)[C@H](CCCNC(N)=O)NC(=O)[C@@H](NC(=O)CCCCCN2C(=O)CC(SC[C@H](NC(=O)CCCCC[N+]3=C(/C=C/C=C/C=C4\N(C)c5ccc6ccccc6c5C4(C)C)C(C)(C)c4c3ccc3ccccc43)C(=O)N[C@@H](CO)C(=O)N[C@@H](CC(N)=O)C(=O)N[C@@H](CC(=O)O)C(=O)N[C@@H](CCCNC(=N)N)C(=O)N3CCC[C@H]3C(=O)N3CCC[C@H]3C(=O)N[C@@H](CC(N)=O)C(=O)N[C@H](C(=O)N[C@@H](CC(C)C)C(=O)N[C@@H](CCC(N)=O)C(=O)N[C@@H](CCCCN)C(=O)N[C@@H](CCCNC(=N)N)C(N)=O)[C@@H](C)CC)C2=O)C(C)C)cc1)C(C)C (some centres not stated) |  |  |  |  | Active | Active |  |  |  | 
6 | CC[C@H](C)[C@@H]([C@@H](CC(=O)N1CCC[C@H]1[C@H](OC)[C@@H](C)C(=O)N[C@H](C)[C@@H](O)c1ccccc1)OC)N(C)C(=O)[C@@H](NC(=O)[C@H](C(C)C)N(C)C(=O)OCc1ccc(NC(=O)[C@H](CCCNC(N)=O)NC(=O)[C@H](NC(=O)CCCCCN2C(=O)CC(SC[C@H](NC(=O)CCCCC[N+]3=C(/C=C/C=C/C=C4\N(C)c5ccc6ccccc6c5C4(C)C)C(C)(C)c4c3ccc3ccccc43)C(=O)N[C@@H](CC(=O)O)C(=O)N[C@@H](Cc3ccc(O)cc3)C(=O)N[C@@H](CCC(=O)O)C(=O)N[C@@H](CCSC)C(=O)N[C@@H](Cc3cnc[nH]3)C(=O)N[C@@H](CC(C)C)C(=O)N[C@@H](Cc3c[nH]c4ccccc34)C(=O)N[C@@H](Cc3c[nH]c4ccccc34)C(=O)NCC(=O)N[C@H](C(=O)N[C@@H](CCC(=O)O)C(=O)N[C@@H](CC(C)C)C(N)=O)[C@H](C)O)C2=O)C(C)C)cc1)C(C)C (some centres not stated) |  |  |  |  |  |  | Active; Compound Showed Minimal Binding | Active; Compound Showed Minimal Binding | Active | 
7 | CC[C@H](C)[C@@H]([C@@H](CC(=O)N1CCC[C@H]1[C@H](OC)[C@@H](C)C(=O)N[C@H](C)[C@@H](O)c1ccccc1)OC)N(C)C(=O)[C@@H](NC(=O)[C@@H](NC)C(C)C)C(C)C (H-[NMeV]V[Dil][Dolaproine]-X1) | 1.47 | 0.46 | 1.05 | 8.63 |  |  |  |  |  | 
8 | CC[C@H](C)[C@@H]([C@@H](CC(=O)N1CCC[C@H]1[C@H](OC)[C@@H](C)C(=O)N[C@H](C)[C@@H](O)c1ccccc1)OC)N(C)C(=O)[C@@H](NC(=O)[C@H](C(C)C)N(C)C(=O)OCc1ccc(NC(=O)[C@H](CCCNC(N)=O)NC(=O)[C@@H](NC(=O)CCCCCN2C(=O)CC(SC[C@H](N)C(=O)N[C@@H](CC(=O)O)C(=O)N[C@@H](Cc3ccc(O)cc3)C(=O)N[C@@H](CCC(=O)O)C(=O)N[C@@H](CCSC)C(=O)N[C@@H](Cc3cnc[nH]3)C(=O)N[C@@H](CC(C)C)C(=O)N[C@@H](Cc3c[nH]c4ccccc34)C(=O)N[C@@H](Cc3c[nH]c4ccccc34)C(=O)NCC(=O)N[C@H](C(=O)N[C@@H](CCC(=O)O)C(=O)N[C@@H](CC(C)C)C(N)=O)[C@@H](C)O)C2=O)C(C)C)cc1)C(C)C (some centres not stated) (I: H-CDYEMHLWWGTEL-NH2 / II: V[Cit][PABC][NMeV]V[Dil][Dolaproine]-X1; linker I:1-II:N via Hexanoyl(6-succinimido-3yl)) | > 100 | 58.1 | 41.5 | > 100 |  |  |  |  |  | 
9 | CC[C@H](C)[C@@H]([C@@H](CC(=O)N1CCC[C@H]1[C@H](OC)[C@@H](C)C(=O)N[C@H](C)[C@@H](O)c1ccccc1)OC)N(C)C(=O)[C@@H](NC(=O)[C@H](C(C)C)N(C)C(=O)OCc1ccc(NC(=O)[C@H](CCCNC(N)=O)NC(=O)[C@@H](NC(=O)CCCCCN2C(=O)CC(SC[C@H](N)C(=O)N[C@@H](C)C(=O)N[C@@H](CC(C)C)C(=O)N[C@@H](CC(C)C)C(=O)N[C@@H](C)C(=O)N[C@@H](CC(N)=O)C(=O)N[C@@H](Cc3cnc[nH]3)C(=O)N[C@@H](CCC(=O)O)C(=O)N[C@@H](CCC(=O)O)C(=O)N[C@@H](CC(C)C)C(=O)N[C@@H](Cc3ccccc3)C(=O)N[C@@H](CCC(N)=O)C(=O)N[C@H](C(N)=O)[C@@H](C)O)C2=O)C(C)C)cc1)C(C)C (some centres not stated) (I: H-CALLANHEELFQT-NH2 / II: V[Cit][PABC][NMeV]V[Dil][Dolaproine]-X1; linker I:1-II:N via Hexanoyl(6-succinimido-3yl)) | > 100 | > 100 | 81.4 | > 100 |  |  |  |  |  | 
10 | CC[C@H](C)[C@@H]([C@@H](CC(=O)N1CCC[C@H]1[C@H](OC)[C@@H](C)C(=O)N[C@H](C)[C@@H](O)c1ccccc1)OC)N(C)C(=O)[C@@H](NC(=O)[C@H](C(C)C)N(C)C(=O)OCc1ccc(NC(=O)[C@H](CCCNC(N)=O)NC(=O)[C@@H](NC(=O)CCCCCN2C(=O)CC(SC[C@H](NC(=O)CCCCC[N+]3=C(/C=C/C=C/C=C4\N(C)c5ccc6ccccc6c5C4(C)C)C(C)(C)c4c3ccc3ccccc43)C(=O)N[C@@H](CO)C(=O)N[C@@H](CC(N)=O)C(=O)N[C@@H](CC(=O)O)C(=O)N[C@@H](CCCNC(=N)N)C(=O)N3CCC[C@@H]3C(=O)N3CCC[C@@H]3C(=O)N[C@@H](CC(N)=O)C(=O)N[C@H](C(=O)N[C@@H](CC(C)C)C(=O)N[C@@H](CCC(N)=O)C(=O)N[C@@H](CCCCN)C(=O)N[C@@H](CCCNC(=N)N)C(N)=O)[C@@H](C)CC)C2=O)C(C)C)cc1)C(C)C (some centres not stated) |  |  |  |  |  |  | Active | Active | Active | Active
